The source of these data is patent US20260306640A1, “TECHNOLOGIES TARGETING CELL STATES” (Auron Therapeutics, Inc., priority 2023, published 2026).

The target of one test is KAT2A (Homo sapiens, UniProt Q92830). Nature of the test: KAT2A degradation, Western Blot (Jess), NCI-H1048 cells. Type of test: cell-based. Also noted: degrader, Western blot (Jess). The conditions noted are these: NCI-H1048 cells, KAT2A, 24 h, Western Blot, vs DMSO; read-out: KAT2A NCI-H1048 DC50. The procedure: (§1) MOLM-13 cells or NCI-H1048 cells were used for Western Blot analysis of KAT2A degradation. KAT2B degradation can be measured in a similar manner with NCI-H1048 cells.
(§2) H1048 cells were maintained at 37° C. in 5% CO2 and 90% humidity in HITES medium with 5% fetal bovine serum (FBS). HITES medium was […] with the following additions: 0.005 mg/ml Insulin, 0.01 mg/ml Transferrin, 30 nM Sodium selenite, 10 nM Hydrocortisone, 10 nM beta-estradiol, and extra 2 mM L-glutamine (for final concentration of 4.5 mM). Cells were plated in full media at 1 million cells/2 mL in a 6-well tissue culture treated plate with or without compounds for 24 h at 37° C. in 5% CO2.
(§3) MOLM-13 cells or NCI-H1048 cells were washed with PBS, then lysed with RIPA buffer containing 1×protease and phosphatase inhibitors (SantaCruz Biotechnologies Cat #sc-24948A). Protein was isolated by centrifugation at 12,000×g for 10 minutes at 4° C. and supernatant was collected. Protein was quantified via Bradford assay. Samples were diluted to 4 μg lysate in 16 μL RIPA buffer and then 4 μL of Jess Sample Buffer. Samples were heated at 95° C. for 5 minutes. Samples were loaded onto 12-230 kDa Jess™ Separation Module, 8×25 capillary cartridges (SM-W004, Biotechne). Antibodies loaded were: Primary antibody for KAT2A (GCN5L2 (C26A10) Rabbit mAb (3305, CST)) and for KAT2B (PCAF (C14G9)) Rabbit mAb (3378, CST) at 1:1000 and Anti-Rabbit Detection Module for Jess™ (Cat No #DM-001, Biotechne). Signal was detected by chemiluminescence.
(§4) DC50 values were determined from percent reduction of protein as compared to the DMSO control.
For orientation: A western blot detects proteins with antibodies after separation by electrophoresis.

The next test deals with KAT2B (Homo sapiens, UniProt Q92831). Nature of the test: KAT2B degradation, Western Blot (Jess), NCI-H1048 cells. It is filed as cell-based. The arrangement: degrader, Western blot (Jess). The note with it: NCI-H1048 cells, KAT2B, 24 h, Western Blot, vs DMSO; read-out: KAT2B NCI-H1048 DC50. The method, then: as §1, §2, §3, §4

Each structure is given as a SMILES string.

Chain of KAT2B (Q92831 whole entry): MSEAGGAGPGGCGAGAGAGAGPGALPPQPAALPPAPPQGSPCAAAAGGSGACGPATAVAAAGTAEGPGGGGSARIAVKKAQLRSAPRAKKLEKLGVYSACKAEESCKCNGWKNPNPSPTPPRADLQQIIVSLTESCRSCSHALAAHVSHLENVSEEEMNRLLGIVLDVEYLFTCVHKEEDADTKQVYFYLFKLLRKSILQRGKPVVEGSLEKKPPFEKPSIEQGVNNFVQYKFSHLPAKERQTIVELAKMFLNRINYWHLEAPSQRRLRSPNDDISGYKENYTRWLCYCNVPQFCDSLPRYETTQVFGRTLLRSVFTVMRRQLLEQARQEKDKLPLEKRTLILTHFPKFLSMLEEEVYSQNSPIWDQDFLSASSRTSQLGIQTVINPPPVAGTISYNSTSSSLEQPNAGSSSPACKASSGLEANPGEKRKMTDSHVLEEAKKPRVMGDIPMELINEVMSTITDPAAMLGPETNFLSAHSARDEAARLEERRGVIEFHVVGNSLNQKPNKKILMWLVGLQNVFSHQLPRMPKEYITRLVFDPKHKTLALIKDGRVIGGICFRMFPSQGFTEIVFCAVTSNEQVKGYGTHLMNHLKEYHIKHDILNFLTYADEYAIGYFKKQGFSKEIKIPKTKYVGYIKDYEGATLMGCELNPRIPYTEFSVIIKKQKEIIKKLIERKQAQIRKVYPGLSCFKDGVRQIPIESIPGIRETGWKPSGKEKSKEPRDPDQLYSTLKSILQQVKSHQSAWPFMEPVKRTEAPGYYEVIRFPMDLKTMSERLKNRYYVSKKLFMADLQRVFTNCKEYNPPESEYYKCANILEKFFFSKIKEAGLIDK
Chain of KAT2A (Q92830 whole entry): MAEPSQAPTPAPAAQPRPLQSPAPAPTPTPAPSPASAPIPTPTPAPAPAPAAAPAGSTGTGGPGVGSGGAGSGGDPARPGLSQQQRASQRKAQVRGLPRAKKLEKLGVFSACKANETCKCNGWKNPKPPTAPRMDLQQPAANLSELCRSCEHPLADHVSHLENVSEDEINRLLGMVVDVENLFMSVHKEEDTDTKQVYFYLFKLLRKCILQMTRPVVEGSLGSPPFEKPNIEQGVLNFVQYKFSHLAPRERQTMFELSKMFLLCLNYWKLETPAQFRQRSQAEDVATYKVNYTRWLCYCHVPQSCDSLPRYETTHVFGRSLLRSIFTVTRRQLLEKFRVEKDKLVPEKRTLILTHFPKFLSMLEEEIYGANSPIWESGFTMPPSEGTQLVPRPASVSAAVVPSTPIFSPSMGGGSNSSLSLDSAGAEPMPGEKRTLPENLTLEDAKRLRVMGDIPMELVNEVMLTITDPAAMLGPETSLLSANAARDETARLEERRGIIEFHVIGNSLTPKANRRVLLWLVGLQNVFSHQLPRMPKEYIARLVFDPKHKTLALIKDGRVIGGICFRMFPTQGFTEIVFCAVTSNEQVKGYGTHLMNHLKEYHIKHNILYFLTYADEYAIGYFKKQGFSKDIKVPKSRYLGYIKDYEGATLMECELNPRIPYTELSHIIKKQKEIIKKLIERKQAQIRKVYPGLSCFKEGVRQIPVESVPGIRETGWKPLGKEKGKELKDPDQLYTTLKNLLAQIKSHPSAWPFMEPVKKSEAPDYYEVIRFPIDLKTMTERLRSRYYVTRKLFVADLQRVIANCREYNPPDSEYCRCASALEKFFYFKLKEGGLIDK

A word on the DC50: it is the concentration at which degradation of the target reaches its halfway point. Turning to `CN1C[C@H](Nc2ccn(C)c(=O)c2Br)C[C@H](c2ccc(C(=O)N3CCC4(CCC(c5ccc(C6CCC(=O)NC6=O)cc5)CC4)CC3)cc2)C1` (stereo partly shown) [Compound 313], the DC50 on KAT2A and at KAT2B was < 1 nM each time.
With `Cc1c(N[C@@H]2C[C@H](c3ccc(CN4CCN(c5ccnc(C6CCC(=O)NC6=O)c5)CC4)cc3)CN(C)C2)cnn(C)c1=O` (stereo partly shown) [Compound 352], the 50% degradation concentration (DC50) at KAT2A was 1 to 30 nM; at KAT2B it was > 30 nM.
The like results for `CN1C[C@H](Nc2cnn(C)c(=O)c2Br)C[C@H](c2ccc(C(=O)N3CCC4(CC3)CCN(c3ccc5c(c3)C(=O)N(C3CCC(=O)NC3=O)C5=O)CC4)cc2)C1` (stereo partly shown) [Compound 300] were, in that order, < 1 nM and < 1 nM.
In the same order, the values of `Cc1cc(N2CCC3(CCN(C(=O)c4ccc([C@H]5C[C@@H](Nc6cnn(C)c(=O)c6Cl)CN(C)C5)cc4)CC3)CC2)ncc1C1CCC(=O)NC1=O` (stereo partly shown) [Compound 266] are < 1 nM and < 1 nM.
The like results for `COc1cc(N2CCC3(CCN(C(=O)c4ccc([C@H]5C[C@@H](Nc6cnn(C)c(=O)c6Br)CN(C)C5)cc4)CC3)CC2)c(F)cc1C1CCC(=O)NC1=O` (stereo partly shown) [Compound 278] were, in that order, 1 to 30 nM and > 30 nM.
As for `CN1C[C@H](Nc2cnn(C)c(=O)c2Cl)C[C@H](c2ccc(C(=O)N3CCC4(CC3)CCN(c3cc(F)c(C5CCC(=O)NC5=O)cc3F)CC4)cc2)C1` (stereo partly shown) [Compound 276], the DC50 on KAT2A and on KAT2B was < 1 nM in each case.
In the case of `CN1C[C@H](Nc2cnn(C)c(=O)c2Br)C[C@H](c2ccc(C(=O)N3CCC4(CC3)CCN(c3ccc(N5CCC(=O)NC5=O)c(F)c3)CC4)cc2)C1` [Compound 397], the DC50 on KAT2A and on KAT2B was < 1 nM in each case.
As for `CN1CC(Nc2cnn(C)c(=O)c2Cl)CC(c2ccc(CN3CCN(c4cccc(OC5CCC(=O)NC5=O)c4)CC3)cc2)C1` (stereo not shown) [Compound 368], the DC50 on KAT2A is 1 to 30 nM; at KAT2B it was > 30 nM.
In the same order, the values of `Cc1c(N[C@@H]2C[C@H](c3ccc(C(=O)N4CCC5(CC4)CCN(c4ccc(C6CCC(=O)NC6=O)cc4C(F)(F)F)CC5)cc3)CN(C)C2)cnn(C)c1=O` (stereo partly shown) [Compound 226] are < 1 nM and 1 to 30 nM.
In the same order, the values of `Cc1cc(N2CCC3(CCN(C(=O)c4ccc([C@H]5C[C@@H](Nc6cnn(C)c(=O)c6Br)CN(C)C5)cc4)CC3)CC2)ccc1OC1CCC(=O)NC1=O` (stereo partly shown) [Compound 364] are < 1 nM and > 30 nM.
In the same order, the values of `COc1cc(C2CCC(=O)NC2=O)ccc1N1CCC2(CCN(C(=O)c3ccc([C@H]4C[C@@H](Nc5cnn(C)c(=O)c5C)CN(C)C4)cc3)CC2)CC1` (stereo partly shown) [Compound 257] are < 1 nM and 1 to 30 nM.
Turning to `Cc1cc(C2CCC(=O)NC2=O)ccc1N1CCC2(CCN(C(=O)c3ccc([C@H]4C[C@@H](Nc5cnn(C)c(=O)c5Br)CN(C)C4)cc3)CC2)CC1` (stereo partly shown) [Compound 248], the DC50 on KAT2A was < 1 nM; at KAT2B it was 1 to 30 nM.
Consider `Cc1c(N[C@@H]2C[C@H](c3ccc(CN4CCN(c5cc6c(cc5F)C(=O)N(C5CCC(=O)NC5=O)C6=O)CC4)cc3)CN(C)C2)cnn(C)c1=O` (stereo partly shown) [Compound 306], for which the DC50 is 1 to 30 nM at KAT2A and > 30 nM at KAT2B.
In the same order, the values of `CCn1ncc(N[C@@H]2C[C@H](c3ccc(C(=O)N4CCC5(CC4)CCN(c4ccc(C6CCC(=O)NC6=O)c(C)c4)CC5)cc3)CN(C)C2)c(Br)c1=O` (stereo partly shown) [Compound 216] are < 1 nM and < 1 nM.
With `Cc1c(N[C@@H]2C[C@H](c3ccc(C(=O)N4CCC5(CC4)CCN(c4ccc6c(C7CCC(=O)NC7=O)nccc6c4)CC5)cc3)CN(C)C2)cnn(C)c1=O` (stereo partly shown) [Compound 295], the DC50 is < 1 nM on KAT2A and 1 to 30 nM at KAT2B.
Consider `Cc1c(N[C@@H]2C[C@H](c3ccc(CN4CCN(c5cc(C6CCC(=O)NC6=O)ccn5)CC4)cc3)CN(C)C2)cnn(C)c1=O` (stereo partly shown) [Compound 357], for which the DC50 is 1 to 30 nM at KAT2A and > 30 nM on KAT2B.
The like results for `Cc1cc(C2CCC(=O)NC2=O)c(F)cc1N1CCC2(CCN(C(=O)c3ccc([C@H]4C[C@@H](Nc5cnn(C)c(=O)c5Br)CN(C)C4)cc3)CC2)CC1` (stereo partly shown) [Compound 275] were, in that order, 1 to 30 nM and 1 to 30 nM.
Turning to `Cc1cc(N2CCC3(CCN(C(=O)c4ccc([C@H]5C[C@@H](Nc6cnn(C)c(=O)c6Cl)CN(C)C5)cc4)CC3)CC2)cc(C)c1C1CCC(=O)NC1=O` (stereo partly shown) [Compound 283], the DC50 at KAT2A and at KAT2B was < 1 nM in each case.
`CN1C[C@H](Nc2cnn(C)c(=O)c2Br)C[C@H](c2ccc(CN3CC(c4ccc5c(c4)C(=O)N(C4CCC(=O)NC4=O)C5=O)C3)cc2)C1` (stereo partly shown) [Compound 202]: the DC50 was 1 to 30 nM on KAT2A and > 30 nM at KAT2B.
The like results for `CN1C[C@H](Nc2cnn(C)c(=O)c2Br)C[C@H](c2ccc(C(=O)N3CCC4(CC3)CCN(c3cnn(C5CCC(=O)NC5=O)c3)CC4)cc2)C1` (stereo partly shown) [Compound 210] were, in that order, 1 to 30 nM and < 1 nM.
Turning to `CN1C[C@H](Nc2cnn(C)c(=O)c2Br)C[C@H](c2ccc(CN3CC(c4cccc(C5CCC(=O)NC5=O)c4)C3)cc2)C1` (stereo partly shown) [Compound 190], the DC50 on KAT2A was 1 to 30 nM; on KAT2B, > 30 nM.
On to `CN1C[C@H](Nc2cnn(C)c(=O)c2Br)C[C@H](c2ccc(CN3C4CC3CN(c3cccc(C5CCC(=O)NC5=O)c3)C4)cc2)C1` (stereo partly shown) [Compound 353], for which the figures for the DC50 on KAT2A and at KAT2B were < 1 nM and > 30 nM, respectively.
In the same order, the values of `CN1C[C@H](Nc2cnn(C)c(=O)c2Br)C[C@H](c2ccc(C(=O)N3CCC4(CC3)CCN(c3ccc5nnn(C6CCC(=O)NC6=O)c5c3)CC4)cc2)C1` (stereo partly shown) [Compound 212] are 1 to 30 nM and > 30 nM.
For the compound `CN1C[C@H](Nc2cnn(C)c(=O)c2Cl)C[C@H](c2ccc(CN3CCN(c4cc(C5CCC(=O)NC5=O)c(F)cc4F)CC3)cc2)C1` (stereo partly shown) [Compound 359], the half-maximal degradation concentration (DC50) on KAT2A and at KAT2B was > 30 nM throughout.
With `Cc1c(N[C@@H]2C[C@H](c3ccc(C(=O)N4CCC5(CC4)CCN(c4ccc(C6CCC(=O)NC6=O)c(C(F)(F)F)c4)CC5)cc3)CN(C)C2)cnn(C)c1=O` (stereo partly shown) [Compound 224], the DC50 on KAT2A and at KAT2B was > 30 nM throughout.
Consider `CN1C[C@H](Nc2cnn(C)c(=O)c2Cl)C[C@H](c2ccc(CN3CCN(c4ccc(F)c(C5CCC(=O)NC5=O)c4)CC3)cc2)C1` (stereo partly shown) [Compound 341], for which the half-maximal degradation concentration (DC50) was < 1 nM at KAT2A and 1 to 30 nM at KAT2B.
In the same order, the values of `CN1C[C@H](Nc2cnn(C)c(=O)c2Cl)C[C@H](c2ccc(CN3C4CC3CN(c3cccc(C5CCC(=O)NC5=O)c3)C4)cc2)C1` (stereo partly shown) [Compound 354] are 1 to 30 nM and > 30 nM.
In the same order, the values of `CN1C[C@H](Nc2cnn(C)c(=O)c2Cl)C[C@H](c2ccc(C(=O)N3CCC4(CC3)CCN(c3ccc5c(c3)C(=O)N(C3CCC(=O)NC3=O)C5=O)CC4)cc2)C1` (stereo partly shown) [Compound 301] are < 1 nM and < 1 nM.
With `CN1C[C@H](Nc2cnn(C)c(=O)c2Br)C[C@H](c2ccc(C(=O)N3CC(c4ccc5c(c4)C(=O)N(C4CCC(=O)NC4=O)C5=O)C3)cc2)C1` (stereo partly shown) [Compound 197], the DC50 on KAT2A was 1 to 30 nM; on KAT2B it was > 30 nM.
In the same order, the values of `CN1C[C@H](Nc2cnn(C)c(=O)c2Br)C[C@H](c2ccc(C(=O)N3CCC4(CC3)CCN(c3ccc(OC5CCC(=O)NC5=O)cn3)CC4)cc2)C1` (stereo partly shown) [Compound 366] are < 1 nM and 1 to 30 nM.
As for `Cc1cc(N2CCC3(CCN(C(=O)c4ccc([C@H]5C[C@@H](Nc6cnn(C)c(=O)c6C)CN(C)C5)cc4)CC3)CC2)cc(F)c1C1CCC(=O)NC1=O` (stereo partly shown) [Compound 255], the DC50 at KAT2A and at KAT2B was < 1 nM in each case.
As for `CN1C[C@H](Nc2cnn(C)c(=O)c2Br)C[C@H](c2ccc(CN3CCN(c4cc(C5CCC(=O)NC5=O)c(F)cc4F)CC3)cc2)C1` (stereo partly shown) [Compound 358], the DC50 on KAT2A and at KAT2B was > 30 nM throughout.
`Cc1cc(N2CCC3(CCN(C(=O)c4ccc([C@H]5C[C@@H](Nc6cnn(C)c(=O)c6Br)CN(C)C5)cc4)CC3)CC2)ccc1N1CCC(=O)NC1=O` [Compound 395]: the DC50 on KAT2A and on KAT2B was < 1 nM in each case.
`CN1C[C@H](Nc2cnn(C)c(=O)c2Cl)C[C@H](c2ccc(CN3CC(c4ccc5c(c4)C(=O)N(C4CCC(=O)NC4=O)C5=O)C3)cc2)C1` (stereo partly shown) [Compound 199]: the DC50 on KAT2A and at KAT2B was > 30 nM each time.
With `COc1cc(C2CCC(=O)NC2=O)ccc1N1CCC2(CCN(C(=O)c3ccc([C@H]4C[C@@H](Nc5cnn(C)c(=O)c5Cl)CN(C)C4)cc3)CC2)CC1` (stereo partly shown) [Compound 258], the half-maximal degradation concentration (DC50) at KAT2A was < 1 nM; at KAT2B, > 30 nM.
